Measurements: US8466162B2, “5-alkynyl-pyridines” (Boehringer Ingelheim International GmbH, priority 2011, dated 2013)
pEC50, pIC50: −log10 of the molar value.

How the values were obtained:
PI3Kalpha = biological target: T1, PI3Kalpha (Homo sapiens, UniProt P42336); test: Inhibition of PI3Kalpha-induced PIP-2 phosphorylation (filter-binding assay, 33P-ATP); assay type: biochemical; settings: PI3 Kinase alpha (p85alpha/His-p110alpha), 1 μM ATP; read-out: IC50 PI3Kα
T1 construct: His (N); made in house; host or cells: SF9 insect cells (baculovirus co-infection)
T1 sequence (P27986 whole entry): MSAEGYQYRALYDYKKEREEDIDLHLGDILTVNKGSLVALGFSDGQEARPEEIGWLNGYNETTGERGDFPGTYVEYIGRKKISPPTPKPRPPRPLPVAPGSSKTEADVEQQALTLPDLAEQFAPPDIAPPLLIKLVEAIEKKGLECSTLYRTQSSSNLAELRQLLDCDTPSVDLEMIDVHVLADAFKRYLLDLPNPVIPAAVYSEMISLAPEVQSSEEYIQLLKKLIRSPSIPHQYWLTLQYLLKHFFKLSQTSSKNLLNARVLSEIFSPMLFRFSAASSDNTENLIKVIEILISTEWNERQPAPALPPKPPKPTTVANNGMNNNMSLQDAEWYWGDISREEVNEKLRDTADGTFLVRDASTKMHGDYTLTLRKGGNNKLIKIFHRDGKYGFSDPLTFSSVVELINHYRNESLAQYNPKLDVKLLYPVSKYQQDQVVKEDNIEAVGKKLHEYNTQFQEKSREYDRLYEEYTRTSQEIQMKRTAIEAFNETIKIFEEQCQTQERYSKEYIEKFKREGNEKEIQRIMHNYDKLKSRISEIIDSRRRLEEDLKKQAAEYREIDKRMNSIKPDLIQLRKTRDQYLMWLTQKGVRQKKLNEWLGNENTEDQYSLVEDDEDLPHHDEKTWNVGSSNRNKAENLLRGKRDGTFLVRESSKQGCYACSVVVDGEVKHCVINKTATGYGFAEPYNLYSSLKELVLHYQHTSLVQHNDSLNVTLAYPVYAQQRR
T1 sequence (P42336 whole entry): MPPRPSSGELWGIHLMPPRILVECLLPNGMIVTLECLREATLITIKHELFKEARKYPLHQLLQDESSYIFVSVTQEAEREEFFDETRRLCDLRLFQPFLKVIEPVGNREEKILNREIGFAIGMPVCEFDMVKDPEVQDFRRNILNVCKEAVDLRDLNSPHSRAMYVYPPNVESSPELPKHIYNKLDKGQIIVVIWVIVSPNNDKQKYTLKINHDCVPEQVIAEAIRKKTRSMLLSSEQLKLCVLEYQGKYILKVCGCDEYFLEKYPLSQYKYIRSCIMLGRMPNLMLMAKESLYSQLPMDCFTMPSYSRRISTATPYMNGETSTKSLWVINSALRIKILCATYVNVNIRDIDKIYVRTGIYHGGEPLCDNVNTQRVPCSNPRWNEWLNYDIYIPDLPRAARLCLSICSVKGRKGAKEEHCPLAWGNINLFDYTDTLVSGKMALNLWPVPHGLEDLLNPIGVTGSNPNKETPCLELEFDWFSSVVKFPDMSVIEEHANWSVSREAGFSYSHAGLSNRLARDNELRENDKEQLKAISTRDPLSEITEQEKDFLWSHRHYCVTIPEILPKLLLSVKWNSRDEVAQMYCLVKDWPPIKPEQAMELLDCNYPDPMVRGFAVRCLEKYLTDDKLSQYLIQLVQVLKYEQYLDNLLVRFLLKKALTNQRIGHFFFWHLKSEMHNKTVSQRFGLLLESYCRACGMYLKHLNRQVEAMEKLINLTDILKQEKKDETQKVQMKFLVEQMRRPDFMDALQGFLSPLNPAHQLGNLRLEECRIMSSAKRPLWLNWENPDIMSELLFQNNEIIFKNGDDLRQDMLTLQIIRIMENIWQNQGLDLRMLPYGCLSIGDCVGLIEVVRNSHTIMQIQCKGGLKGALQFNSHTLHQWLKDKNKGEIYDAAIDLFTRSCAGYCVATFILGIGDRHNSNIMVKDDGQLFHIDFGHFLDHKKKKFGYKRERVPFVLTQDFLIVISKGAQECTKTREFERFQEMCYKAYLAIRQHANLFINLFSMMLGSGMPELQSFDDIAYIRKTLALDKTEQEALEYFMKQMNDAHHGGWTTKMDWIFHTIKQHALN

H460 cells = test: alamarBlue H460 cell assay (antiproliferative/cytotoxicity); assay type: cell-based; settings: NCI-H460; H460 human lung carcinoma cells
In short: (§1)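 EC50 values reflect antiproliferative or cytotoxic effect, taken from fluorometric alamarBlue signal (excitation 530-560 nm, emission 590 nm) corrected for a medium blank. Exposure lasted 5-6 days at concentrations up to 10 μM final.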

MB453 cells = test: alamarBlue MB453 cell assay (antiproliferative/cytotoxicity); assay type: cell-based; settings: Homo sapiens; MDA MB 453 breast cancer cell line
In short: as §1

U87 cells = test: alamarBlue U87 cell assay (antiproliferative/cytotoxicity); assay type: cell-based; settings: U-87MG human glioblastoma cells
In short: as §1

MCF7 cells = test: alamarBlue MCF7 cell assay (antiproliferative/cytotoxicity); assay type: cell-based; settings: MCF7 human breast cancer cell line
In short: as §1

BT474 cells = test: alamarBlue BT474 cell assay (antiproliferative/cytotoxicity); assay type: cell-based; settings: BT-474 human breast cancer cell line, 5-6 days incubation
In short: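 3000 cells/well, overnight attachment, 37° C CO2; BT474 medium IMDM/5% FCS. Cpds 10 μM final, 1:3 x10, duplicates; 5-6 d exposure. alamarBlue 8 h, fluor. 530-560/590 nm; EC50 from blank-corrected data.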

| pIC50 (PI3Kalpha) | Compound | pEC50 (H460 cells) | pEC50 (MB453 cells) | pEC50 (U87 cells) | pEC50 (MCF7 cells) | pEC50 (BT474 cells) |
| --- | --- | --- | --- | --- | --- | --- |
| 9.41 | CCc1ncnc(-c2ccnc(C)c2)c1C#Cc1cnc(C)c(NS(=O)(=O)c2cccnc2)c1 [Example 91, Pyridine-3-sulfonic acid {5-[4-ethyl-6-(2-methyl-pyridin-4-yl)-pyrimidin-5-ylethynyl]-2-methyl-pyridin-3-yl}-amide] | 6.10 | 6.79 | 6.32 | 6.86 | 6.69 |
| 8.15 | CCc1ncnc(-c2ccnc(C)c2)c1C#Cc1cnc(C)c(NS(=O)(=O)c2ccc(C)cc2C)c1 [Example 92, N-{5-[4-Ethyl-6-(2-methyl-pyridin-4-yl)-pyrimidin-5-ylethynyl]-2-methyl-pyridin-3-yl}-2,4-dimethyl-benzenesulfonamide] | 6.44 | 6.01 | 6.01 | 6.64 | 6.32 |
| 9.00 | CCc1ncnc(-c2ccnc(C)c2)c1C#Cc1cnc(C)c(NS(=O)(=O)c2cn(C)cn2)c1 [Example 93, 1-Methyl-1H-imidazole-4-sulfonic acid {5-[4-ethyl-6-(2-methyl-pyridin-4-yl)-pyrimidin-5-ylethynyl]-2-methyl-pyridin-3-yl}-amide] | 6.53 | 6.83 | 6.25 | 6.71 | 6.39 |
| 9.00 | CCc1ncnc(-c2ccnc(C)c2)c1C#Cc1cnc(C)c(NS(=O)(=O)c2ccc(CNC(C)=O)cc2)c1 [Example 94, N-(4-{5-[4-Ethyl-6-(2-methyl-pyridin-4-yl)-pyrimidin-5-ylethynyl]-2-methyl-pyridin-3-ylsulfamoyl}-benzyl)-acetamide] | 5.59 | 6.29 | 5.63 | 6.24 | 6.19 |
| 8.70 | Cc1cc(-c2ncnc(C)c2C#Cc2cncc(NS(C)(=O)=O)c2)ccn1 [Example 95, N-{5-[4-Methyl-6-(2-methyl-pyridin-4-yl)-pyrimidin-5-ylethynyl]-pyridin-3-yl}-methanesulfonamide] | 5.69 | 6.32 | 6.41 | 6.39 | 5.78 |
